From US9205119B2, “Neuroprotective compositions and methods” (Rutgers, The State University of New Jersey, priority 2009, dated 2015)

Tests used:
Type in all cases: in vivo
[1] = tested on: pMCAO mice (permanent middle cerebral artery occlusion, focal cerebral ischemia); experiment: TTC staining to determine infarct volume after pMCAO; conditions: 30 mg/kg intraperitoneally 2 hr before and 6 hr after pMCAO, measured 24 hr post-pMCAO by TTC staining
Experimental: Human stroke typically involves disruption of blood flow to a specific region supplied often by the middle cerebral artery (MCA). The classical animal model of focal ischemia, MCA occlusion (MCAO), produces the problem of long-term vessel blockade, simulating what often occurs in human stroke. We have induced focal cerebral ischemia in mice by cauterizing the MCA. To evaluate the acute injury induced by MCAO, animals were euthanized at 24 h after MCAO, and the infarct volume was determined using 2,3,5-triphenyltetrazolium chloride (TTC) staining. (Rajanikant, G. K., et al., Stroke, 38:3023-31 (2007)). In brief, 24 hours after pMCAO, animals were deeply anesthetized with an injection of pentobarbital (70 mg/kg, i.p.) and subjected to intracardiac perfusion with 100 mL of isotonic saline delivered through an electronic pump at 100 mm Hg. The head was then removed with a small animal guillotine and the brain carefully dissected out en bloc. After a brief (<1 minute) period of cooling on a bed of ice, the brain was sliced coronally at 1-mm intervals. […] The infarct area was then quantified from the scanned images using the NIH Image J analysis software (version 1.38). […] Vehicle or various doses (3, 30, 50 or 90 mg/kg) of KB-3 or KB-3a were administered intraperitoneally 2 hr before and 6 hr after pMCAO and the infarct volume was measured at 24 hr post-pMCAO by TTC staining. […]

[2] = tested on: pMCAO mice; experiment: Neurological deficit scoring (18-point scale, Garcia) after pMCAO; conditions: 30 mg/kg, 24 hr post-pMCAO, mean±SEM, vehicle 12.3±0.48, preoperative 17.5±0.29
Experimental: To determine whether KB-3a-induced reduction in infarct volume and neuronal degeneration could translate into functional recovery, neurological evaluations were performed right before the surgery and 24 hr following pMCAO. The neurobehavioral deficit scoring system consists of six tests as previously described in detail, which include: (1) spontaneous activity, (2) symmetry of four limb movement, (3) forepaw outstretching while held by tail, (4) climbing wall of wire cage, (5) reaction to touch on either side of trunk, and (6) response to vibrissae touch. (See Garcia, J. H., et al., Stroke, 26:627-34 (1995)). The neurological score given to each mouse at the completion of the evaluation is the summation of all six individual test scores. The minimum neurological score is 3 and the maximum is 18. Using the 18 point-based scale, the normal mean preoperative neurological score was 17.5±0.29.

[3] = tested on: pMCAO mice; experiment: Elevated body-swing test (EBST) after pMCAO; conditions: intraperitoneally 2 hr pre- and 6 hr post-pMCAO, 24 hr after ischemia, vehicle 66.4±4.9, pre-operated 50.55±1.05
Experimental: In addition, the elevated body-swing test (EBST), described in detail by Borlongan et al, was used by us to assess asymmetric motor behavior. (Borlongan, C. V. and Sanberg, P. R., J. Neurosci., 15:5372-8 (1995)). Mice were held by the base of the tail and elevated about 10 cm from the tabletop. The direction of body swing, defined as an upper body turn of >10° to either side, was recorded for 1 min during each of three trials. The number of left and right turns was counted, and the percentage of turns made to the side contralateral to the ipsilateral hemisphere (% right-biased swing) was determined. (Ishibashi, S., et al., Exp. Neurol., 207:302-13 (2007)). The EBST was used to detect asymmetry in motor behavior at 24 hr post-pMCAO.

[4] = tested on: pMCAO mice (ipsilateral cortex degenerating neurons); experiment: Fluoro Jade B staining to determine degenerating neurons after pMCAO; conditions: 30 mg/kg 2 hr before and 6 hr after pMCAO, 24 h after MCAO
Experimental: We used brain coronal sections […] for Fluoro Jade B staining to determine degenerating neurons, as previously described. (Rajanikant, G. K., et al., Stroke, 38:3023-31 (2007)). In brief, the brain sections on glass slides were dried overnight, immersed for 3 min in 100% ethanol, for 1 min in 70% ethanol, and for 1 min in distilled water, and then incubated in a solution containing 0.01% Fluoro-Jade B (Histo-Chem Inc., Jefferson, Ark.) and 0.1% acetic acid (1:10) for 30 min on a shaker. After three 10-min washes, the slides were coverslipped, and labeled sections were visualized with a confocal laser-scanning microscope.

Compound: CC(C)=CCC/C(=C/CC/C(C)=C/CC/C(C)=C/Cc1cc(O)cc(C)c1O)C(=O)O [KB-3, sargahydroquinoic acid]
- reduction in infarct volume compared with vehicle-treated group [1]: approximately 48%

Compound: CC(=O)Oc1cc(C)c(OC(C)=O)c(CC=C(C)CCC=C(C)CCC=C(CCC=C(C)C)C(=O)O)c1 [KB-3a, 1,4-diacetyl-sargahydroquinoic acid]
- neurological score (18 point-based scale) [2]: 17±0.41
- percent right-biased swing (EBST) [3]: 52.16±1.8%
- reduction of Fluoro-Jade B staining within the ipsilateral cortex compared to vehicle control [4]: approximately 50%
- reduction in infarct volume compared with vehicle-treated group [1]: approximately 54%
